According to ChEMBL document CHEMBL5050844 (2019):

Columns and labels:
[1] = Induction of activation of human CD56+ CD3- NK cells co-cultured with human K562 cells in 5:1 ratio and assessed as increase in TNF-alpha secretion at 1 uM measured by ELISA assay; assay type: functional, Natural killer cell
[2] = Induction of anti-CD3 antibodies-stimulated human T cell activation at 8 uM assessed fold increase in IL-2 secretion measured by ELISA assay; assay type: functional, T cell line; note: reference of the scale not given here
[3] = Induction of anti-CD3/CD28 antibodies-stimulated human CD8+ T cell activation at 1.11 uM assessed fold increase in CD69 expression measured by flow cytometry analysis; assay type: functional, T cell line
[4] = Induction of activation of human CD56+ CD3- NK cells co-cultured with human K562 cells in 1:1 ratio and assessed as increase in MIP1beta secretion at 1 uM measured by ELISA assay; assay type: functional, Natural killer cell
[5] = Induction of anti-CD3 antibodies-stimulated human CD8+ T cell activation at 10 uM assessed fold increase in cell proliferation measured by flow cytometry analysis; assay type: functional, T cell line; note: reference of the scale not given here
[6] = Induction of activation of human CD56+ CD3- NK cells co-cultured with human K562 cells in 5:1 ratio and assessed as increase in MIP1beta secretion at 1 uM measured by ELISA assay; assay type: functional, Natural killer cell
[7] = Induction of anti-CD3 antibodies-stimulated human CD4+ T cell activation in immunocompetent mouse assessed fold increase in CD25 expression at 90 mg/kg, ip administered twice a day; assay type: functional; note: reference of the scale not given here
[8] = Induction of activation of human CD56+ CD3- NK cells co-cultured with human K562 cells in 1:1 ratio and assessed as increase in MIP1beta secretion at 10 uM measured by ELISA assay; assay type: functional, Natural killer cell
[9] = Induction of activation of human CD56+ CD3- NK cells co-cultured with human K562 cells in 1:1 ratio and assessed as increase in TNF-alpha secretion at 1 uM measured by ELISA assay; assay type: functional, Natural killer cell
[10] = Induction of anti-CD3 antibodies-stimulated human exhausted CD8+ T cell activation assessed fold increase in CTLA4 expression measured by flow cytometry analysis; assay type: functional, T cell line; note: reference of the scale not given here
[11] = Induction of anti-CD3 antibodies-stimulated human exhausted T cell activation assessed fold increase in GM-CSF secretion measured by ELISA assay; assay type: functional, T cell line; note: reference of the scale not given here
[12] = Induction of anti-CD3 antibodies-stimulated human T cell activation at 1 uM assessed fold increase in IL-2 secretion measured by ELISA assay; assay type: functional, T cell line; note: reference of the scale not given here
[13] = Induction of activation of human CD56+ CD3- NK cells co-cultured with human K562 cells in 5:1 ratio and assessed as increase in TNF-alpha secretion at 10 uM measured by ELISA assay; assay type: functional, Natural killer cell
[14] = Induction of anti-CD3 antibodies-stimulated human CD8+ T cell activation at 1.11 uM assessed fold increase in cell proliferation measured by flow cytometry analysis; assay type: functional, T cell line; note: reference of the scale not given here
[15] = Induction of anti-CD3 antibodies-stimulated human CD4+ T cell activation at 10 uM assessed fold increase in CD69 expression measured by flow cytometry analysis; assay type: functional, T cell line; note: reference of the scale not given here
[16] = Induction of anti-CD3 antibodies-stimulated human exhausted CD4+ T cell activation assessed fold increase in CTLA4 expression measured by flow cytometry analysis; assay type: functional, T cell line; note: reference of the scale not given here
[17] = Induction of activation of human CD56+ CD3- NK cells co-cultured with human K562 cells in 1:1 ratio and assessed as increase in IFN-gamma secretion at 1 uM measured by ELISA assay; assay type: functional, Natural killer cell
[18] = Induction of activation of human CD56+ CD3- NK cells co-cultured with human K562 cells in 5:1 ratio and assessed as increase in MIP1beta secretion at 10 uM measured by ELISA assay; assay type: functional, Natural killer cell
[19] = Induction of activation of human CD56+ CD3- NK cells co-cultured with human K562 cells in 5:1 ratio and assessed as increase in IFN-gamma secretion at 1 uM measured by ELISA assay; assay type: functional, Natural killer cell
[20] = Induction of anti-CD3 antibodies-stimulated human CD8+ T cell activation in immunocompetent mouse assessed fold increase in CD25 expression at 90 mg/kg, ip administered thrice a day; assay type: functional; note: reference of the scale not given here
[21] = Induction of anti-CD3/CD28 antibodies-stimulated human T cell activation at 0.3 uM assessed fold increase in CD25 expression measured by ELISA assay; assay type: functional, T cell line
[22] = Induction of activation of human CD56+ CD3- NK cells co-cultured with human K562 cells in 5:1 ratio and assessed as increase in IFN-gamma secretion at 10 uM measured by ELISA assay; assay type: functional, Natural killer cell
[23] = Induction of anti-CD3/CD28 antibodies-stimulated human T cell activation at 1.11 uM assessed fold increase in IFN-gamma secretion measured by ELISA assay; assay type: functional, T cell line
[24] = Induction of anti-CD3 antibodies-stimulated human T cell activation at 10 uM assessed fold increase in GM-CSF secretion measured by ELISA assay; assay type: functional, T cell line; note: reference of the scale not given here
[25] = Induction of anti-CD3/CD28 antibodies-stimulated human T cell activation at 10 uM assessed fold increase in GM-CSF secretion measured by ELISA assay; assay type: functional, T cell line
[26] = Induction of anti-CD3/CD28 antibodies-stimulated human T cell activation at 10 uM assessed fold increase in IFN-gamma secretion measured by ELISA assay; assay type: functional, T cell line
[27] = Induction of anti-CD3 antibodies-stimulated human T cell activation at 10 uM assessed fold increase in IFN-gamma secretion measured by ELISA assay; assay type: functional, T cell line; note: reference of the scale not given here

Row | SMILES | fold change (FC) [1] | fold change (FC) [2] | fold change (FC) [3] | fold change (FC) [4] | fold change (FC) [5] | fold change (FC) [6] | fold change (FC) [7] | fold change (FC) [8] | fold change (FC) [9] | fold change (FC) [10] | fold change (FC) [11] | fold change (FC) [12] | fold change (FC) [13] | fold change (FC) [14] | fold change (FC) [15] | fold change (FC) [16] | fold change (FC) [17] | fold change (FC) [18] | fold change (FC) [19] | fold change (FC) [20] | other results
1 | C[C@@H](Sc1nncn1C)c1cccc(NC(=O)c2cccc(C(F)(F)F)n2)c1 | <=1 | 0.051 | <=1.2 | 1.01 | >4 | <=1 | 1.51 | 1.01 | 1.01 | <=1.4 | <=1.4 | 0.051 | <=1 | 3.01 | 1.401 | <=1.4 | <=1 | 1.01 | <=1 | 1 | fold change (FC) [21]: 1.01; fold change (FC) [22]: 1.01
2 | C[C@H](Sc1nncn1C)c1cccc(NC(=O)c2cccc(C(F)(F)F)n2)c1 | 1.01 | >=0.201 | <=1.2 | 1.01 | <=2 | <=1 | 1 | 1.01 | 1.01 | <=1.4 | 1.41 | 0.051 | 2.01 | <=2 | <=1.2 | <=1.4 | 1.01 | 1.01 | 1.01 | 1.51 | fold change (FC) [23]: <=2; fold change (FC) [24]: 2.01; fold change (FC) [25]: 2.01; fold change (FC) [26]: <=2; fold change (FC) [21]: 1.31; fold change (FC) [27]: <=2; fold change (FC) [22]: 2.01
